Test results as given in paper PMC5601738, “Facile total synthesis of lysicamine and the anticancer activities of the Ru^II, Rh^III, Mn^II and Zn^II complexes of lysicamine” (Oncotarget, 2017).
Values joined by “and” are separate entries in the source; they are usually repeats but may differ in a detail not shown here. Identical values can stand only once. Like-named read-outs stand apart in the source and are kept apart here.

Legend:
BEL-7404 = test: MTT assay, BEL-7404 cells; type: cell-based, human; conditions: 48 h; for IC50: MTT, mean ± SD from five independent experiments
HepG2 = test: MTT assay, HepG2 cells; conditions: for IC50: read-out: IC50 HepG2
NCI-H460 = test: MTT assay, NCI-H460 cells; type: cell-based, human; conditions: 48 h; for IC50: MTT, mean ± SD from five independent experiments
T-24 = test: MTT assay, T-24 cells; type: cell-based, human; conditions: 48 h; for IC50: MTT, mean ± SD from five independent experiments
[1] = tested on: HL-7702 normal liver cell; test: MTT assay, HL-7702 normal liver cell; type: cell-based; conditions: 48 h; for IC50: MTT, mean ± SD from five independent experiments
HepG2 cells = test: Cell cycle analysis by flow cytometry; type: cell-based, human; conditions: HepG2, 24 h
ct-DNA = test: CD absorption spectrometry assay with ct-DNA; type: binding; conditions: ct-DNA 1×10^−4 M, [DNA]/[compound] 10:0.5 to 10:2.0
pBR322 plasmid DNA = test: Agarose gel electrophoresis assay with pBR322 plasmid DNA; type: biochemical; conditions: pBR322 0.5 μg/μL, TBE buffer pH=8.5, 10 to 100 μM
Method: The DNA cleavage activity of 2, 3 and LY were tested by agarose gel electrophoresis assay using pBR322 plasmid DNA (0.5 μg/μL) in TBE buffer (pH=8.5). […] In contrast, under the same experimental conditions, when the concentration of 2 increased from 10 μM to 50 μM, the mobility of supercoiled DNA (form I) was reduced, but the relaxed form (form II) was not observed. When the concentration of 2 increased further to 70 μM, the form II DNA appeared. Almost all supercoiled DNA (form I) changed to relaxed DNA (form II) when the concentration of 2 reached 90 and 100 μM.
RT-qPCR was performed. The threshold cycle (Ct) values approval no. SCXK 2014-0002 and SYXK 2014-0003), […]
were housed at a sterile environment with conditions of […]
than 3 days before used. Complexes and LYwere all […]
is limited in 1% in final working solutions. KM mice. The large concentration of 2 in 10% (v/v) […]
ct-DNA CD spectrum as control.
The HepG2 xenograft mice were induced by
37 °C in the dark for 4 h.
The percent weight loss or gain was calculated […]
imaging system under a UV-Vis transilluminator.. Percent tumour growth inhibition after initiation of treatment with 2 and cisplatin were calculated by TGI= […]
initial for control group).
Animals were supplied by Guangxi Medical
University Laboratory Animal Centre (Guangxi, China, […]

HepG2 xenograft = HepG2 xenograft model
[2] = metal salts 1× 10-4 mol/L, 48 h

Structure (SMILES) | inhibitive ratio BEL-7404 (BEL-7404; metal salts 1× 10-4 mol/L) | inhibitive ratio Hep-G2 (HepG2; [2]) | inhibitive ratio NCI-H460 (NCI-H460; metal salts 1× 10-4 mol/L) | inhibitive ratio T-24 (T-24; metal salts 1× 10-4 mol/L) | inhibitive ratio HL-7702 ([1]; metal salts 1× 10-4 mol/L) | inhibitive ratio BEL-7404 (BEL-7404; 20 μmol/L) | inhibitive ratio Hep-G2 (HepG2; 20 μmol/L, 48 h) | inhibitive ratio NCI-H460 (NCI-H460; 20 μmol/L) | inhibitive ratio T-24 (T-24; 20 μmol/L) | inhibitive ratio HL-7702 ([1]; 20 μmol/L, normal liver cell) | also measured
O.O.O.[Cl][Rh]([Cl])[Cl] [RhCl3·3H2O, reference compound] | 35.29±0.97% | 24.02±1.02% | 25.41±1.25% | 27.09±1.11% | 30.12±1.57% |  |  |  |  |  | 
O.O.O.O.O.O.[Mn+2].[O-][Cl+3]([O-])([O-])[O-].[O-][Cl+3]([O-])([O-])[O-] [Mn(ClO4)2·6H2O, reference compound] | 25.84±1.36% | 18.52±0.67% | 30.12±0.46% | 24.08±1.86% | 23.06±1.64% |  |  |  |  |  | 
COc1cc2ccnc3c2c(c1OC)-c1ccccc1C3=O [LY, lysicamine] |  |  |  |  |  | 32.27±1.73% | 53.13±1.19% | 52.85±0.32% | 42.40±2.14% | 45.49±0.78% and 45.5% | IC50 (BEL-7404; Homo sapiens, BEL-7404): 47.5 ± 1.65 µM; IC50 (HepG2; Homo sapiens, HepG2, 48 h): 23.9 ± 0.41 µM; IC50 (NCI-H460; Homo sapiens, NCI-H460): 19.14 ± 0.18 µM; IC50 (T-24; Homo sapiens, T-24): 34.5 ± 1.96 µM; effect on cell cycle progression (HepG2 cells): only blocked the cell cycle in the G1 phase; change of CD spectrum of ct-DNA / binding (ct-DNA): the binding was weak; DNA cleavage activity on supercoiled pBR322 DNA (pBR322 plasmid DNA): did not change the supercoiled DNA and its migration rate; IC50 ([1]; Homo sapiens, L02, normal liver cell): 29.3 ± 0.72 µM
N.N.[Cl][Pt][Cl] [Cisplatin, cisplatin, reference compound] |  |  |  |  |  | 55.15±1.18% | 60.63±0.99% | 53.88±1.29% | 47.58±2.05% | 68.95±1.42% and 68.9% | IC50 (BEL-7404): 12.4 ± 0.38 µM; IC50 (HepG2; MTT, 48 h, mean ± SD from five independent experiments): 18.5 ± 0.78 µM; IC50 (NCI-H460): 18.3 ± 1.02 µM; IC50 (T-24): 28.1 ± 1.88 µM; BW% (body weight change) (HepG2 xenograft; 2.0 mg/kg per 2 days): -25.8%; loss in body weight (HepG2 xenograft; 2.0 mg/kg per 2 days): 25.8%; TGI (HepG2 xenograft; 2.0 mg/kg per 2 days i.p.): 83.16%; IC50 ([1]; normal liver cell): 15.7 ± 1.27 µM
